Measurements as given in PMC4232273 (Angewandte Chemie (International Ed. in English), 2014).

Target: New Delhi metallo-β-lactamase subclass 1 (NDM-1) (Klebsiella pneumoniae, UniProt C7C422)
Assay: 1H NMR monitoring of hydrolysis in E. coli cells expressing NDM-1
Type: cell-based

Chain of New Delhi metallo-β-lactamase subclass 1 (NDM-1) (C7C422 29-270, looked up): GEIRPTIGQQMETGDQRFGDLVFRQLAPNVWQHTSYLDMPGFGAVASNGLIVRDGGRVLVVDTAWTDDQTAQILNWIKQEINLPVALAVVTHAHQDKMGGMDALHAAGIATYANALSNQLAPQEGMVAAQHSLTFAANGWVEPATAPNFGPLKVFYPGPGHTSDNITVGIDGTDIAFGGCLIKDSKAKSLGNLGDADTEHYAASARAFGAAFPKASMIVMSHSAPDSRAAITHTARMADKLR

With `C[C@@H](O)[C@H]1C(=O)N2C(C(=O)O)=C(SCCN=CN)C[C@H]12` [imipenem] the “1H NMR monitoring of hydrolysis in E. coli cells expressing NDM-1” value was “These were readily hydrolyzed by the NDM-1 E. coli cells within an hour or so under our experimental conditions”.
